Values joined by “and” are separate entries in the source; they are usually repeats but may differ in a detail not shown here. Equal values may be shown once. Read-outs that look alike come from different tables or passages of the source.
Experiments:
KV7.2/3 channel = KV7.2/3 channel (Homo sapiens, UniProt O43525+O43526); test: KV7.2/3 channel opening assay (thallium-sensitive fluorescence); format: cell-based; details: for EC50 / efficacy: HEK293 cells overexpressing KV7.2/3; for KV7.2/3 channel opening activity (in words): inactive = no channel opening activity detected up to a concentration of 10 μM; for efficacy: relative to maximum signal of flupirtine (=100%)
Procedure: To evaluate the biological activity, the synthesized analogues were tested on HEK293 cells overexpressing the KV7.2/3 channel. The measurement was carried out in a fluorescence-based assay in which a thallium-sensitive dye generated the fluorescence signal. Due to its similarity to potassium, thallium can also pass through KV7 channels. The intensity of the fluorescence signal correlates with the amount of intracellular thallium and thus with the ability of the compounds to open KV7 channels. To determine the potency, the fluorescence intensity was measured as a function of the compound concentration. The efficacy was determined relative to the maximum fluorescence signal induced by flupirtine. For a summary of the activity data, see Table 2.
The cell culture of the KV7.2/3 transfected HEK293 cells (HEK293 KCNQ2/3 cells from SB Drug Discovery, Glasgow, UK) used for the assay and the processing of the obtained data were performed as described in earlier work.[27],[29] Briefly, 60,000 cells/well were seeded into 96-well microtiter plates for fluorescence-based assays (4titude Vision Plate Black 96-Well microtiter plates from ThermoScientic) and incubated for 24 h. After incubation, the medium was changed to 200 μL/well loading buffer containing 5 mmol/L probenecid and incubated for 1 h at room temperature. Subsequently, the test compounds dissolved in DMSO were added to the wells to the desired concentrations and further incubated for 30 min. As a control, the loading buffer with a DMSO concentration corresponding to the substance samples (1% (V/V)) was used. Fluorescence measurements were performed on the Infinite F200 Pro plate reader (Tecan) set at […]/emission wavelengths of 485 and 535 nm, respectively. After measuring the background fluorescence (baseline) for 20 s, a stimulus buffer (25 mmol/L K^+, 15 mmol/L Tl^+) was added just before the fluorescence of each well was measured.
The calculations to obtain dose–response curves were performed in the same manner as in previous investigations.[27],[29] Briefly, the fluorescence intensity was normalized with the baseline signal (F/F0) at each time of signal acquisition. To obtain the corrected negative control, a value of 1 was subtracted from the normalized value of the negative control. Subsequently, the value of the corrected negative control was subtracted from the maximum (corr. F/F0) value of a compound in a defined concentration (corr. ΔF/F0) and then plotted against the logarithmic concentration. The EC50 value was calculated as relative values with GraphPad Prism 6 (La Jolla, CA, USA), that is, the inflection points of the sigmoidal curves. The Emax value, the maximum response, indicates the intrinsic activity of a compound. This value was determined relative to flupirtine (1), where the maximum corr. ΔF/F0 value of flupirtine (1) was defined as 100%. The EC50 and Emax value of a compound is the mean of at least three independent experiments ± standard deviation (SD).

HEP-G2 cells = test: MTT cell viability assay, HEP-G2 cells; details: for LD50: 50% reduction of viability
Text: (§1) In addition to the activity, basic toxicological properties of the newly synthesized compounds were also investigated by using the 3-(4,5-dimethylthiazol-2-yl)-2,5-diphenyltetrazolium bromide (MTT) cell viability assay on mouse TAMH and human HEP-G2 hepatic cell lines (see Table 2). Both cell lines are established for the evaluation of hepatotoxicity.[42],[43]
(§2) The culturing of the mouse liver TAMH and human liver cancer HEP-G2 cell lines and the MTT assay used to evaluate cell viability were carried out as previously described elsewhere in detail.[27],[29] […] The medium in the wells was then replaced with the medium containing the compounds. Control wells contained an equivalent number of cells and 1% (v/v) DMSO. Wells without cells were used to determine the background optical density (OD) and were treated as the control wells. After 24 or 48 h of incubation with the compound, the respective medium was replaced with a fresh medium supplemented with 10% (v/v) of a 2.5 mg/mL solution of MTT. The plates were incubated for 4 h. Then, the culture medium was carefully aspirated off and 50 μL of DMSO was added to each well to dissolve the formazan crystals. The ODs of each well were measured at λ = 570 nm with a SpectraMax 190 microplate reader.
(§3) The calculated T/Ccorr. values were plotted against the log(concentration). The LD50 and LD25 values were determined by using GraphPad Prism 6. […] The values are given as the mean with SD of at least three independent experiments.

TAMH cells = test: MTT cell viability assay, TAMH cells; details: for LD50: 50% reduction of viability
Text: as §1, §2, §3

[1] = log D7.4 estimation by HPLC-based method; format: physicochemical; details: HPLC, Phenomenex Luna 5 μm Phenyl-Hexyl column
Procedure: The log D7.4 values were estimated using a common HPLC-based method in accordance with guideline OPPTS 830.7570 of the United States Environmental Protection Agency (EPA). The HPLC measurements were performed with a Phenomenex Luna 5 μm Phenyl-Hexyl 100 Å column (150 × 4.6 mm). […]. Uracil was used to measure the unretained peak time. To obtain a calibration function, the logarithm of the capacity factors for the reference substances was then plotted against the corresponding log P values taken from the mentioned guideline, which are equivalent to the log D7.4 values for non-ionizable compounds like the reference substances used for calibration. With this calibration function, it was possible to estimate the log D7.4 value from the corresponding retention time for each compound to be tested. For the measurement, 2 mg of the reference substances was each dissolved in 1 mL of methanol. A reference mixture was then obtained by combining 50 μL of each reference solution. The reference mixture was measured before and after the substances to be tested. The mean value from both measurements was used for the calibration line. The substances to be tested were injected as a solution in methanol (2 mg/mL), and the retention time was determined as the mean value from two measurements.

[2] = HEP-G2 cells, MTT assay, 24 h exposure, 25% reduction of viability
[3] = HEP-G2 cells, MTT assay, 24 h exposure
[4] = TAMH cells, MTT assay, 24 h exposure, 25% reduction of viability
[5] = TAMH cells, MTT assay, 24 h exposure
[6] = pH 7.4, HPLC, calibration C, read-out: logD7.4
[7] = pH 7.4, HPLC, calibration D, read-out: logD7.4
[8] = pH 7.4, HPLC, mean of two calibrations, read-out: logD7.4 (mean)
[9] = pH 7.4, estimated by HPLC-based method, pH 7.4, read-out: log D7.4
[10] = concentration for half-maximal channel opening, mean ± SD, ≥3 determinations
[11] = pH 7.4, HPLC, calibration A1, read-out: logD7.4
[12] = pH 7.4, HPLC, calibration B1, read-out: logD7.4

Sequence of KV7.2/3 channel (O43526 whole entry): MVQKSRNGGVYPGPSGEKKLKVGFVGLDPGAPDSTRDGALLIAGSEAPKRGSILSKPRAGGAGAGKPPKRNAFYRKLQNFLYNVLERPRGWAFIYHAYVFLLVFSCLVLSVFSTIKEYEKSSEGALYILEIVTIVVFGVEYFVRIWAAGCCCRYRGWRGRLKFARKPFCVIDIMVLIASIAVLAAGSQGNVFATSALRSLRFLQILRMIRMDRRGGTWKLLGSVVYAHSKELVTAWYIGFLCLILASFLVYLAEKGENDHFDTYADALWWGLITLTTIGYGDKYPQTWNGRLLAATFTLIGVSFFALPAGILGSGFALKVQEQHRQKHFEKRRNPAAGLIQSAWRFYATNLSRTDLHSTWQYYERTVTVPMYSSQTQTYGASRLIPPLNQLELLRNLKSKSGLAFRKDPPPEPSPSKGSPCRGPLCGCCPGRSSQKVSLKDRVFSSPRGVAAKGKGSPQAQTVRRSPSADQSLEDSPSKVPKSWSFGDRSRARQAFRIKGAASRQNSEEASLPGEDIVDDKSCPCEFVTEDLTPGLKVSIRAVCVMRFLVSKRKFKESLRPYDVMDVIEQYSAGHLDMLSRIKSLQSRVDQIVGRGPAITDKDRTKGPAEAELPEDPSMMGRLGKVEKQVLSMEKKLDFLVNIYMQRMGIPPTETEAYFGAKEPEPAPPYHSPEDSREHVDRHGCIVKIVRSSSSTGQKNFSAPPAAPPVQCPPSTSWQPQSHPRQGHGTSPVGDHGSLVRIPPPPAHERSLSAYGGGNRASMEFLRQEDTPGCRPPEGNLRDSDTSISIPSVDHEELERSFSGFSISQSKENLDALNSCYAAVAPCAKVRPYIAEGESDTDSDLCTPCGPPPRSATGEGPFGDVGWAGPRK
Sequence of KV7.2/3 channel (O43525 whole entry): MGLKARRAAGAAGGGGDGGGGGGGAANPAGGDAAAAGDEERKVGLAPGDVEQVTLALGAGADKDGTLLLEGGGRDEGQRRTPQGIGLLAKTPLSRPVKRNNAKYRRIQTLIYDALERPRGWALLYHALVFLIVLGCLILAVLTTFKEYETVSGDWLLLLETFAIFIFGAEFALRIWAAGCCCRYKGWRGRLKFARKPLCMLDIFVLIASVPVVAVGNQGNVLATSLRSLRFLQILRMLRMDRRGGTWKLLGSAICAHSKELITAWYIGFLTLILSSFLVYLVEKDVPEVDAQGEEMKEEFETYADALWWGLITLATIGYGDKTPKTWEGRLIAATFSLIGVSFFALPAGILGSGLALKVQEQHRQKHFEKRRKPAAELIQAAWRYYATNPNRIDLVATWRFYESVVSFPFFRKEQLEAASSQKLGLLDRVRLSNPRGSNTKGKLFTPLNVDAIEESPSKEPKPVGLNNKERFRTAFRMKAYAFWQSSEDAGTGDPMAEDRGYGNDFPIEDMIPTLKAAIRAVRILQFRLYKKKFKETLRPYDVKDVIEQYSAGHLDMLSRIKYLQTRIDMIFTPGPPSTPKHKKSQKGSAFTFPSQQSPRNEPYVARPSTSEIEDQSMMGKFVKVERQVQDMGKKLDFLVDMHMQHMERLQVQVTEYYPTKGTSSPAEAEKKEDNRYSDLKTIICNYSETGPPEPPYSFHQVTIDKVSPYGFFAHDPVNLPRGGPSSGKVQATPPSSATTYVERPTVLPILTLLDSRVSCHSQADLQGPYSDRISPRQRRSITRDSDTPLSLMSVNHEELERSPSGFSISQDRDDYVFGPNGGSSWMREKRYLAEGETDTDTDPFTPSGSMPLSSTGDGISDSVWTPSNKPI

SMILES	EC50 (KV7.2/3 channel; footnote e)	KV7.2/3 channel opening activity (in words) (KV7.2/3 channel)	LD25 (HEP-G2 cells; [2])	LD50 (HEP-G2 cells; [3])	LD25 (TAMH cells; [4])	LD50 (TAMH cells; [5])	chromatographic logD [1, 6]	chromatographic logD [1, 7]	chromatographic logD [1, 8]	chromatographic logD [1, 9]	loss of potency (factor) (KV7.2/3 channel; 36a compared with 36b)	EC50 (KV7.2/3 channel; [10])	efficacy (KV7.2/3 channel)	chromatographic logD [1, 11]	chromatographic logD [1, 12]	LD50 (HEP-G2 cells; HEP-G2 cells, MTT assay, 24 h exposure, listed as flupirtine)	LD25 (HEP-G2 cells; human, 24 h)	LD50 (TAMH cells; TAMH cells, MTT assay, 24 h exposure, listed as flupirtine)	LD25 (TAMH cells; mouse, 24 h)
COc1cc(NCc2ccc(F)cc2)ccc1C(=O)NCC(C)C [28a, 4-[(4-Fluorobenzyl)amino]-N-isobutyl-2-methoxybenzamide]	> 10 µM	inactive	31 ± 13 µM	42 ± 7 µM	43 ± 27 µM	>63 µM	3.79	3.79	3.8	3.8	–	–	–	–	–	–	–	–	–
COc1cc(NCc2ccc(F)cc2)ccc1C(=O)NCc1ccc(F)cc1 [28b, N-(4-Fluorobenzyl)-4-[(4-fluorobenzyl)amino]-2-methoxybenzamide]	> 10 µM	inactive	>8 µM	>8 µM	>8 µM	>8 µM	4.28	4.29	4.3	4.3	–	–	–	–	–	–	–	–	–
CCCCNC(=O)c1c(C)cc(NCc2ccc(F)cc2)nc1OC [36a, N-Butyl-6-[(4-fluorobenzyl)amino]-2-methoxy-4-methylnicotinamide]	–	–	24 ± 1 µM	>63 µM	17 ± 1 µM	>63 µM	–	–	3.7	3.7	11	3.51 ± 0.724 µM	65% and 65 ± 9%	3.7	3.66	–	–	–	–
Cc1cc(N2CCOCC2)nc(N2CCOCC2)c1CNC(=O)c1ccc(F)cc1 [55a, 4-Fluoro-N-[(4-methyl-2,6-dimorpholinopyridin-3-yl)methyl]benzamide]	> 10 µM	inactive	22 ± 6 µM	>31 µM	22 ± 7 µM	>31 µM	–	–	3.5	3.5	–	–	–	3.45	3.46	–	–	–	–
Cc1cc(N2CCOCC2)nc(N2CCOCC2)c1CNC(=O)Cc1cc(F)cc(F)c1 [55b, 2-(3,5-Difluorophenyl)-N-[(4-methyl-2,6-dimorpholinopyridin-3-yl)methyl]acetamide]	> 10 µM	inactive	20 ± 7 µM	>250 µM	24 ± 5 µM	>250 µM	–	–	3.5	3.5	–	–	–	3.52	3.53	–	–	–	–
CCOC(=O)Nc1ccc(NCc2ccc(F)cc2)nc1N [compound 1, flupirtine, reference compound]	–	–	–	547 ± 111 µM	–	487 ± 51 µM	–	–	2.1	2.1	–	1.84 ± 0.844 µM	100%	2.1	2.06	~500 µM	74 ± 40 µM	~500 µM	103 ± 47 µM
CC(C)CNC(=O)c1ccc(NCc2ccc(F)cc2)cc1N [compound 17, 2-Amino-4-[(4-fluorobenzyl)amino]-N-isobutylbenzamide]	> 10 µM	inactive	56 ± 40 µM	>125 µM	>125 µM	>125 µM	2.75	2.75	2.7	2.7	–	–	–	–	–	–	–	–	–
CCCCNC(=O)c1ccc(NCc2ccc(F)cc2)nc1N [compound 21, 2-Amino-N-butyl-6-[(4-fluorobenzyl)amino]nicotinamide]	> 10 µM	inactive	148 ± 11 µM	149 ± 11 µM	145 ± 7 µM	149 ± 7 µM	–	–	2.9	2.9	–	–	–	2.88	2.86	–	–	–	–
CCCNC(=O)c1ccc(NCc2ccc(F)cc2)cc1CC.Cl [compound 47, 2-Ethyl-4-[(4-fluorobenzyl)amino]-N-propylbenzamide hydrochloride]	> 10 µM	did not result in any improvement in terms of activity	60 ± 9 µM	77 ± 15 µM	–	>125 µM	3.24	3.23	3.2	3.2	–	–	–	–	–	–	–	–	–
Cc1cc(N2CCOCC2)nc(N)c1CNC(=O)Cc1cc(F)cc(F)c1 [compound 61, N-[(2-Amino-4-methyl-6-morpholinopyridin-3-yl)methyl]-2-(3,5-difluorophenyl)acetamide]	> 10 µM	inactive	>63 µM	>63 µM	>63 µM	>63 µM	–	–	2.6	2.6	–	–	–	2.57	2.58	–	–	–	–

From article PMC8908504 (ACS Omega, 2022)
